# From patent publication US20260374766A1, “METHODS FOR TREATING CANCER” (Antares Therapeutics, Inc., priority 2022, published 2026)
# Counter-ions that a name gives are not always drawn.
# Legend:
# [1] = molecular target: T1, p53 Y220C mutant protein (amino acid residues 94-293) (Homo sapiens, UniProt P04637, Y220C); assay: Surface Plasmon Resonance (SPR) assay, Kd_kinetic; type: binding; conditions: SPR, kinetic KD, p53 Y220C; read-out: SPR P53 Y220C KD kinetic
# T1 construct: p53 Y220C mutant protein (amino acid residues 94-293)
# Procedure, shortened: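 Biacore 8K SPR; 16 or 20 °C; Tris 50 mM pH 7.5, NaCl 100 mM, DTT 1 mM, Brij35 0.01%, Tween-20 0.05%, DMSO 1%. Kd_kinetic by 1:1 fit.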
# [2] = molecular target: T1, p53 Y220C mutant protein (amino acid residues 94-293); assay: Thermal Shift Assay (TSA), dTM; type: binding; conditions: thermal shift; for ΔTm at 100 µM: 100 uM compound, read-out: TSA P53 Y220C dTM (100 uM); for ΔTm at 10 µM: 10 uM compound, read-out: TSA P53 Y220C dTM (10 uM)
# Experimental: Thermal Shift Assay (TSA) Protocol
# 5 μM recombinant p53 Y220C mutant protein (amino acid residues 94-293) was incubated with 10 μM or 100 μM compound for 3 hours at 20 °C in buffer containing 20 mM HEPES, pH7.4, 100 mM NaCl, 0.01% Pluronic F-127, and 1% DMSO in the presence of 400-fold diluted Sypro Orange (ThermoFisher Scientific catalog number 4461146), on a 384-well PCR plate (Applied Biosystems catalog number 4483285). The volume was 5 μL/well. The sealed plate was then loaded onto a QuantStudio 7 Flex instrument for melting temperature (TM) measurement. The temperature was increased from 30 °C to […], at a rate of 0.03 °C/second. Data were fit into a Boltzmann two-state model to determine the TM.
# p53 Y220C = p53 Y220C (Homo sapiens, UniProt P04637, Y220C); assay: Luciferase Reporter Assay (Luc), p53 response element, NClH1299 cells with inducible p53 Y220C; type: cell-based; conditions: luciferase reporter, NClH1299 inducible p53 Y220C, 6 hour; for Emax: 10 uM tool compound as positive control; for AC50: read-out: Luc P53 Y220C AC50
# Procedure, shortened: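 H1299 cells induced with 0.5 ug/mL doxycycline for 24 hours, then exposed to compound for 6 hours. p53 response-element luciferase read by One-Glo luminescence after 5 min shaking at room temperature.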
# NUGC3 p53 Y220C = assay: Cell Proliferation Assay (CellTiter-Glo, CTG), NUGC3 p53 Y220C; type: cell-based; conditions: Homo sapiens, NUGC-3, 120 h, CellTiter-Glo, NUGC3 p53 Y220C, 5 days
# Procedure, shortened: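 Tet-One inducible p53 Y220C or R273H constructs were stably introduced into NCI-H1299 by lentiviral transduction; NUGC3 was used as is. Cells (250-500 per well) were exposed to compound for 5 days, then CellTiter-Glo was added for 10 min at room temperature and IC50 was calculated from luminescence.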
# H1299 p53 Y220C = assay: Cell Proliferation Assay (CellTiter-Glo, CTG), H1299 p53 Y220C (NClH1299-inducible p53 Y220C); type: cell-based; conditions: Homo sapiens, NCI-H1299, 120 h, CellTiter-Glo, H1299 p53 Y220C, 5 days
# Procedure, shortened: (§1)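 NClH1299 lines stably transduced with Tet-inducible p53 Y220C or R273H, plus NUGC3, were treated with compound for 5 days at 250-500 cells/well. IC50 derived from CellTiter-Glo luminescent signal after 10 min room-temperature incubation.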
# H1299 p53 R273H = assay: Cell Proliferation Assay (CellTiter-Glo, CTG), H1299 p53 R273H (NClH1299-inducible p53 R273H); type: cell-based; conditions: Homo sapiens, NCI-H1299, 120 h, CellTiter-Glo, H1299 p53 R273H, 5 days
# Procedure, shortened: as §1
SMILES,Kd [1],ΔTm at 100 µM [2],Emax (p53 Y220C),AC50 (p53 Y220C),IC50 (NUGC3 p53 Y220C),IC50 (H1299 p53 Y220C),IC50 (H1299 p53 R273H),ΔTm at 10 µM [2]
"CNC(=O)c1ccc(NCC#Cc2nc3c(N[C@@H]4CCN(C)CC4(F)F)cccn3c2CC(F)(F)F)c(OC)c1 (single isomer, unassigned) [Example 37]",> 1 µM,5 to 10 °C,< 70%,> 3 µM,> 3 µM,> 3 µM,≥ 10 µM,–
"COc1cc(S(C)(=O)=O)ccc1NCC#Cc1nc2c(NC3CCN(C)CC3)cc(O)cn2c1CC(F)(F)F [Example 27, 2-{3-[(4-methanesulfonyl-2-methoxyphenyl)amino]prop-1-yn-1-yl}-8-[(1-methylpiperidin-4-yl)amino]-3-(2,2,2-trifluoroethyl)imidazo[1,2-a]pyridin-6-ol, TFA salt]",–,5 to 10 °C,< 70%,> 3 µM,> 3 µM,> 3 µM,≥ 10 µM,–
"CNC(=O)c1ccc(NCC#Cc2nc3c(N[C@@H]4CCN(C)C[C@@H]4F)cccn3c2SC(F)(F)F)c(OC)c1 [Example 28, 4-{[3-(8-{[(3S,4R)-3-fluoro-1-methylpiperidin-4-yl]amino}-3-[(trifluoromethyl)sulfanyl]imidazo[1,2-a]pyridin-2-yl)prop-2-yn-1-yl]amino}-3-methoxy-N-methylbenzamide, formic acid salt]",–,≥ 10 °C,80 to 90%,< 0.75 µM,< 0.75 µM,< 0.75 µM,8 to 10 µM,≥ 10 °C
"COc1cc(S(C)(=O)=O)ccc1NCC#Cc1nc2c(NC3CCN(C)CC3)cc(-c3ccccc3)cn2c1CC(F)(F)F [Example 34, N-(2-{3-[(4-methanesulfonyl-2-methoxyphenyl)amino]prop-1-yn-1-yl}-6-phenyl-3-(2,2,2-trifluoroethyl)imidazo [1,2-a]pyridin-8-yl)-1-methylpiperidin-4-amine, formic acid salt]",–,1 to 5 °C,< 70%,> 3 µM,1.5 to 3 µM,1.5 to 3 µM,< 5 µM,–
"CNC(=O)c1ccc(NCC#Cc2nc3c(NC4CCN(C)CC4)cc(NC(C)=O)cn3c2CC(F)(F)F)c(OC)c1 [Example 41, 4-[(3-{6-acetamido-8-[(1-methylpiperidin-4-yl)amino]-3-(2,2,2-trifluoroethyl)imidazo[1,2-a]pyridin-2-yl}prop-2-yn-1-yl)amino]-3-methoxy-N-methylbenzamide]",–,1 to 5 °C,< 70%,> 3 µM,> 3 µM,> 3 µM,≥ 10 µM,–
"C=CC(=O)Nc1cc(NC2CCN(C)CC2)c2nc(C#CCNc3ccc(C(=O)NC)cc3OC)c(CC(F)(F)F)n2c1 [Example 42, 3-methoxy-N-methyl-4-[(3-{8-[(1-methylpiperidin-4-yl)amino]-6-(prop-2-enamido)-3-(2,2,2-trifluoroethyl)imidazo[1,2-a]pyridin-2-yl}prop-2-yn-1-yl)amino]benzamide]",–,< 1 °C,< 70%,> 3 µM,> 3 µM,> 3 µM,≥ 10 µM,–
"CNC(=O)c1ccc(NCC#Cc2nc3c(NC4CCN(C)CC4)cc(NC(=O)C(F)Cl)cn3c2CC(F)(F)F)c(OC)c1 (centres unmarked) [Example 43, 4-((3-[6-(2-chloro-2-fluoroacetamido)-8-[(1-methylpiperidin-4-yl)amino]-3-(2,2,2-trifluoroethyl)imidazo[1,2-a]pyridin-2-yl]prop-2-yn-1-ylamino)-3-methoxy-N-methylbenzamide, formic acid salt]",–,1 to 5 °C,< 70%,> 3 µM,> 3 µM,> 3 µM,≥ 10 µM,–
"CNC(=O)c1ccc(NCC#Cc2nc3c(NC4CCN(C)CC4)cc(NC(=O)OC)cn3c2CC(F)(F)F)c(OC)c1 [Example 45, methyl N-[2-(3-{[2-methoxy-4-(methylcarbamoyl)phenyl]amino}prop-1-yn-1-yl)-8-[(1-methylpiperidin-4-yl)amino]-3-(2,2,2-trifluoroethyl)imidazo[1,2-a]pyridin-6-yl]carbamate]",–,1 to 5 °C,< 70%,> 3 µM,> 3 µM,> 3 µM,≥ 10 µM,–
"CN1CC[C@@H](Nc2cccn3c(CC(F)(F)F)c(C#CCN)nc23)[C@@H](F)C1 [Example 75, (3S,4R)—N-[2-(3-aminoprop-1-yn-1-yl)-3-(2,2,2-trifluoroethyl)imidazo[1,2-a]pyridin-8-yl]-3-fluoro-1-methylpiperidin-4-amine]",–,1 to 5 °C,< 70%,> 3 µM,> 3 µM,> 3 µM,≥ 10 µM,–
"C=C(F)C(=O)Nc1cc(NC2CCN(C)CC2)c2nc(C#CCNc3ccc(C(=O)NC)cc3OC)c(CC(F)(F)F)n2c1 [Example 90, 4-({3-[6-(2-fluoroprop-2-enamido)-8-[(1-methylpiperidin-4-yl)amino]-3-(2,2,2-trifluoroethyl)imidazo[1,2-a]pyridin-2-yl]prop-2-yn-1-yl}amino)-3-methoxy-N-methylbenzamide]",–,1 to 5 °C,< 70%,> 3 µM,> 3 µM,> 3 µM,≥ 10 µM,–
CNC(=O)c1ccc(NCC#Cc2nc3c(NC4CCN(C)CC4)cc(NC(=O)CCl)cn3c2CC(F)(F)F)c(OC)c1 [Example 91],–,≥ 10 °C,< 70%,> 3 µM,> 3 µM,> 3 µM,≥ 10 µM,–
"CNC(=O)c1ccc(NCC#Cc2nc3c(N[C@@H]4CCN(C)C[C@@H]4F)cc(F)cn3c2CC(F)(F)F)c(OC)c1 [Example 99, 4-{[3-(6-fluoro-8-{[(3S,4R)-3-fluoro-1-methylpiperidin-4-yl]amino}-3-(2,2,2-trifluoroethyl)imidazo[1,2-a]pyridin-2-yl)prop-2-yn-1-yl]amino}-3-methoxy-N-methylbenzamide, formic acid salt]",–,≥ 10 °C,80 to 90%,0.75 to 1.5 µM,0.75 to 1.5 µM,0.75 to 1.5 µM,5 to 8 µM,–
"COc1cc(P(C)(C)=O)ccc1NCC#Cc1cc2c(N[C@@H]3CCN(C)C[C@@H]3F)nccn2c1SC(F)(F)F [Example 185, (3S,4R)—N-[7-(3-{[4-(dimethylphosphoryl)-2-methoxyphenyl]amino}prop-1-yn-1-yl)-6-[(trifluoromethyl)sulfanyl]pyrrolo[1,2-a]pyrazin-1-yl]-3-fluoro-1-methylpiperidin-4-amine; formic acid]",–,–,80 to 90%,< 0.75 µM,< 0.75 µM,< 0.75 µM,≥ 10 µM,≥ 10 °C
